Read-outs that look alike come from different tables or passages of the source. Residues, ends and D or L forms follow the SMILES beside them. No end group written: not given here.
Experiments:
[1] = system: A/WSN strain of influenza virus; format: cell-based
uninfected cells = conditions: tissue culture cells
[2] = system: vesicular stomatitis virus; format: cell-based
[3] = system: intracellular virus protein synthesis; format: cell-based, Sindbis virus; conditions: peptide 0.1 mg/ml
Semliki Forest virus = conditions: 4 h, 1 mg/ml
[4] = system: viral ribonucleoprotein particles (RNP)
[5] = system: viral nucleoprotein and matrix protein; format: cell-based, influenza virus

viral ribonucleoprotein particles (RNP), sequence (P15682 whole entry): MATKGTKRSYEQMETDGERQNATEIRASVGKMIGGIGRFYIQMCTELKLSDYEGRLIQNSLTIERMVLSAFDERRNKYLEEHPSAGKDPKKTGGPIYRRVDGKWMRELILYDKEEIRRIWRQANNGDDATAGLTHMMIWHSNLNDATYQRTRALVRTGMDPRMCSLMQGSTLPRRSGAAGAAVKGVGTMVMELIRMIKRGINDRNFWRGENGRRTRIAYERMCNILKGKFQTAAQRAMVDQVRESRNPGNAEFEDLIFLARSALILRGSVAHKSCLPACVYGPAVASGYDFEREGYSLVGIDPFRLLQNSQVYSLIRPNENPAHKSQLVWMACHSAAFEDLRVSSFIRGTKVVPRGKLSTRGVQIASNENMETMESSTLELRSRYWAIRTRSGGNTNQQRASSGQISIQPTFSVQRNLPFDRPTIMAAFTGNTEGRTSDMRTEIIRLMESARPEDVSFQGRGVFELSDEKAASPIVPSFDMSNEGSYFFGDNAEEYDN

CCCCCCCC(=O)N[C@@H](CC(C)C)C(=O)N[C@H](C(=O)N1CCC[C@H]1C(=O)N[C@@H](Cc1ccc(O)cc1)C(=O)N[C@@H](C)C(=O)N[C@@H](CC(C)C)C(=O)N[C@@H](C)C(N)=O)[C@@H](C)O [OCTANOYLATED HEPTAPEPTIDE L-T-P-Y-A-L-A, L-T-P-Y-A-L-A] (HELM PEPTIDE1{[CCCCCCCC(=O)[*:2]].L.T.P.Y.A.L.A.[am]}$$$$V2.0)
increase of inhibitory potency by addition of an octanoyl group (Sindbis virus): 10 fold | effect on cells infected with influenza [1]: no effect | effect on uninfected cells (uninfected cells): no effect | effect on cells infected with vesicular stomatitis virus [2]: no effect | inhibition of vesicular stomatitis virus formation and secretion [2]: no inhibition | inhibition of intracellular virus protein synthesis [3]: no inhibition

LTPYAL-NH2 [HEXAPEPTIDE L-T-P-Y-A-L, L-T-P-Y-A-L]
Degree of Inhibition (Semliki Forest virus): 36%

N-G-S-L-Q-C-R-I (NGSLQCRI) [8 amino acid peptide lacking the two carboxy-terminal amino acids of HA2 (213-222)]
inhibition of influenza virus release ([1]; specificity tests, E2 (391-399) at 1 mg/ml in FIG. 2): non-inhibitory

N-G-S-L-Q-C-R-I-C-I-NH2 (NGSLQCRICI-NH2; cysteine pairing not given here) [HA2 (213-222), residues 213-222 at the carboxy terminus of the HA2 of A/WSN strain of influenza virus]
block in the release of Sindbis virus (Sindbis virus; 200 μg/ml): no block | nucleoprotein in the RNP peak, % of the total cytoplasmic nucleoprotein [4]: 19% | changes in synthesis of intracellular viral nucleoprotein and matrix protein ([5]; increasing amounts of peptide): No significant changes | Incorporation (% of control) ([5]; peptide level 20 μg/ml): 110 +/-12 % of control | Incorporation (% of control) ([5]; peptide level 50 μg/ml): 108 +/-12 % of control | Incorporation (% of control) ([5]; peptide level 100 μg/ml): 94 +/-9 % of control | Incorporation (% of control) ([5]; peptide level 200 μg/ml): 83 % of control | Incorporation (% of control) ([5]; peptide level 250 μg/ml): 97 % of control | half-maximal dose, inhibition of virus particle secretion [1]: less than 50 μg/ml | inhibition of release of influenza virus particles ([1]; 150 μg/ml peptide (RNP test)): 70% | inhibition of release of influenza virus ([1]; 200 μg/ml): 90% | block of virus particle secretion ([1]; 250 μg/ml (225 μM)): > 90% | IC50 ([1]; read-out: half-maximal dose, inhibition of virus particle secretion): < 45 µM | block of release of vesicular stomatitis virus ([2]; 200 μg/ml): 15%

From patent US5104854A (priority 1991, dated 1992)
